Assay results: patent US8222031B2, “Three-dimensional skin model” (Fraunhofer-Gesellschaft zur Foerderung der angewandten …, priority 2000, dated 2012)

Key:
Format in all cases: cell-based
[1] = system: three-dimensional human skin equivalent; experiment: Il1α secretion in media supernatants of skin equivalents by ELISA
Protocol: (§1) Substances samples were used equivalently for testing on the human skin equivalent. The objective was to study any irritating effect of the samples on the full skin model after 48 hours of incubation time via the EZ4U metabolism. The secretion of Il1α and PGE2 was supposed to be determined in the media supernatants after 24 hours and after 48 hours by ELISA. Different concentrations of SDS were also run as a reference substance. Finally, all tested skin equivalents were fixed, and the morphological structure was tested and evaluated with stained paraffin sections.
(§2) The skin equivalents each were prepared in a 6-well with 1 ml of medium (KBM without hEGF, without BPE, and with 1.8 mM CaCl2). The samples were incubated on the surface of the corresponding skin models according to the following schedule:
(§3) Day 1: Application of 3 μl substance in the morning and in the afternoon.
Day 2: Media replacement and freezing of media supernatants for Il1α und PGE2 determination. […]
(§4) The Il1α and PGE2 content in the media supernatants was determined after 24 hours and 48 hours of incubation of the samples using commercially available ELISA test kits and following their instructions.
The induced secretion of cytokine Il1α was quantified by ELISA first after 24 hours and then after a subsequent, additional incubation for 24 hours with test substances in the media supernatants of the equivalents. […]

[2] = system: three-dimensional human skin equivalent; experiment: EZ4U test: cell metabolism (cytotoxicity) of skin equivalents
Protocol: as §1
The skin equivalents each were prepared in a 6-well with 1 ml of medium (KBM without hEGF, without BPE, and with 1.8 mM CaCl2). The samples were incubated on the surface of the corresponding skin models according to the following schedule: […]
The EZ4U test was performed as followed: After 48 hours of incubation, the cell metabolism of the individual skin equivalents was determined photometrically using a vital stain (tetrazolium derivative). […] Turnover kinetics of the negative controls, positive controls, and the equivalents treated with the samples were recorded over a period of 2 hours at 450 nm (with a reference wavelength of 620 nm). […] Both Ec50 and Et50 were determined for SDS. Et50 was determined according to different exposure times from 1% SDS (3 sec, 30 sec, 60 sec, 5 min, 15 min). […]

[3] = system: three-dimensional human skin equivalent; experiment: PGE2 synthesis in media supernatants of skin equivalents by ELISA
Protocol: as §1, §2, §3
Day 2: Media replacement and freezing of media supernatants for Il1α und PGE2 determination. Treatment with 3 μl substance in the morning and in the afternoon.
Day 3: Freezing of media supernatants for Il1α und PGE2 determination. Determination of cell metabolism in EZ4U test over a period of 2 hours. Fixation of slides and preparation of stained paraffin sections for histological evaluation.
as §4
The synthesis of the PGE2 inflammatory mediator was quantitatively determined by ELISA in the skin model after a first incubation for 24 hours and subsequent second incubation for 24 hours with test substances in the media supernatants of the equivalents. Samples 186-355 as well as different concentrations of SDS were used as test substances.

Il1α secretion, maximum ([1]; 1% SDS, first 24 h incubation): more than 100 pg/ml per skin equivalent
Il1α secretion after the second incubation ([1]; SDS, second 24 h incubation): remain overall elevated
PGE2 synthesis ([3]; 1% SDS, after the first 24 hours): ≥ 4000 pg/ml per skin equivalent
PGE2 synthesis after the second 24-hour incubation ([3]; SDS, second 24-hour incubation): practically unchanged
PGE2 synthesis ([3]; up to an SDS concentration of 0.5%): almost unchanged low level
SMILES: CCCCCCCCCCCCOS(=O)(=O)[O-].[Na+] [SDS]
Change (in percent) of cell metabolism after 48 hours of incubation, in relation to untreated control (100%) ([2]; AST-2000, SDS 0.73% (Ec50 from dose/effect curve)): 50%
Ec50 (concentration that causes 50% cell damage; irritation threshold) ([2]; SDS reference, dose/effect curve): 0.73%
